Test results: patent EP4818187A1, “COMPOUND AND USE THEREOF” (Ganzhou Hemay Pharmaceutical, Co., Ltd, priority 2023, dated 2025)
pIC50: −log10 of the molar value.

Assays:
[1] = tested on: Fadu (human pharyngeal squamous cell carcinoma); test: In vitro inhibitory effect against human tumor cells (MTT); type: cell-based; conditions: 72 h, 3 days
[2] = tested on: HCT116 (human colorectal cancer); test: as above; type: cell-based; conditions: HCT-116, 72 h, 3 days
[3] = tested on: NCI-H1975 (human non-small cell lung cancer); test: as above; type: cell-based; conditions: NCI-H1975, 72 h, 3 days
[4] = tested on: NCI-N87 (human gastric cancer cell); test: as above; type: cell-based; conditions: NCI-N87, 72 h, 3 days
[5] = tested on: SK-OV-3 (human ovarian cancer); test: as above; type: cell-based; conditions: SK-OV-3, 72 h, SK-OV-3, MTT, 3 days
[6] = tested on: 22RV1 (human prostate cancer); test: In vitro inhibitory effect against human tumor cells (SRB); type: cell-based; conditions: 22Rv1, 72 h, 22RV1, SRB, 3 days
[7] = tested on: A375 (human malignant melanoma); test: as above; type: cell-based; conditions: A-375, 72 h, 3 days
[8] = tested on: HCC827 (human non-small cell lung cancer); test: as above; type: cell-based; conditions: HCC827, 72 h, 3 days
[9] = tested on: HepG2 (human liver cancer cell); test: as above; type: cell-based; conditions: HepG2, 72 h, 3 days
[10] = tested on: MDA-MB-468 (human triple-negative breast cancer); test: as above; type: cell-based; conditions: MDA-MB-468, 72 h, MDA-MB-468, SRB, 3 days
[11] = tested on: SW620 (human colorectal cancer); test: as above; type: cell-based; conditions: SW-620, 72 h, 3 days
[12] = tested on: BxPC-3 (human pancreatic cancer in situ); test: In vitro inhibitory effect against human tumor cells (MTT or SRB); type: cell-based; conditions: BXPC-3, 72 h, BxPC-3, test method printed MTT (head: SRB), 3 days
[13] = tested on: human ovarian cancer SK-OV-3; test: Biological Example 6: in vivo xenograft model of human ovarian cancer SK-OV-3; set-up: species or system Balb/c-nu nude mice; conditions: SK-OV-3 xenograft, nude mice, 0.8 mg/kg i.v. qw×3
[14] = tested on: human non-small cell lung cancer NCI-H1975; test: Biological Example 8: in vivo xenograft model of human non-small cell lung cancer NCI-H1975; set-up: species or system Balb/c-nu nude mice; conditions: nude mice
[15] = With addition of βGU (1 µg/well)

CC[C@H](C)[C@@H]([C@@H](CC(=O)N1CCC[C@H]1[C@H](OC)[C@@H](C)C(=O)N[C@H](C)[C@@H](O)c1ccccc1)OC)N(C)C(=O)[C@@H](NC(=O)[C@H](C(C)C)[N+](C)(C)Cc1ccc(O[C@@H]2O[C@H](C(=O)[O-])[C@@H](O)[C@H](O)[C@H]2O)cc1OCc1cn(CCCCCC(=O)Nc2ccc(-c3ccc(/N=N/c4ccc5c(S(=O)(=O)[O-])cc(S(=O)(=O)[O-])c(N)c5c4O)c(C)c3)cc2C)nn1)C(C)C.[Na+].[Na+] [Example compound 4]
pIC50 [1, 15]: 8.77
pIC50 ([1]; βGU-free): 7.68
pIC50 [2, 15]: 8.18
pIC50 ([2]; βGU-free): 6.86
pIC50 [3, 15]: 8.26
pIC50 ([3]; βGU-free): 7.07
pIC50 [4, 15]: 8.64
pIC50 ([4]; βGU-free): 7.24
pIC50 [5, 15]: 8.29
pIC50 ([5]; βGU-free): 6.67
pIC50 [6, 15]: 8.15
pIC50 ([6]; βGU-free): 6.94
pIC50 [7, 15]: 8.30
pIC50 ([7]; βGU-free): 7.18
pIC50 [8, 15]: 8.47
pIC50 ([8]; βGU-free): 7.27
pIC50 [9, 15]: 8.33
pIC50 ([9]; βGU-free): 7.14
pIC50 [10, 15]: 9.02
pIC50 ([10]; βGU-free): 8.06
pIC50 [11, 15]: 8.47
pIC50 ([11]; βGU-free): 7.17
pIC50 [12, 15]: 8.72
pIC50 ([12]; βGU-free): 7.36
Final body weight change (%) [13]: 4.2%
Maximum body weight change (%) [13]: 4.8, d17%
Relative volume RTV (x±S.D.) [13]: 0.79±0.79
T/C (%) [13]: 7.6%
Tumor inhibition rate (%) [13]: 96.0%
Tumor weight (g, x±S.D.) [13]: 0.055 ± 0.077 g
Body weight (g, x±S.D.) End ([13]; End): 24.2 ± 0.9 g
Body weight (g, x±S.D.) Start ([13]; Start): 23.3 ± 0.8 g
Final body weight change (%) ([14]; 0.8 mg/kg i.v. qw×3): 4.9%
Maximum body weight change (%) ([14]; 0.8 mg/kg i.v. qw×3): 4.9, d24%
Relative volume RTV (x±S.D.) ([14]; 0.8 mg/kg i.v. qw×3): 0.33±0.17
T/C (%) ([14]; 0.8 mg/kg i.v. qw×3): 2.7%
Tumor inhibition rate (%) ([14]; 0.8 mg/kg i.v. qw×3): 97.3%
Tumor weight (g, x±S.D.) ([14]; 0.8 mg/kg i.v. qw×3): 0.072 ± 0.046 g
Body weight (g, x±S.D.) End 24d ([14]; 0.8 mg/kg i.v. qw×3, End 24d): 26.0 ± 1.1 g
Body weight (g, x±S.D.) Start ([14]; 0.8 mg/kg i.v. qw×3, Start): 24.8 ± 0.8 g
